The values below come from US20240383874A1, “BENZENE RING DERIVATIVE, AND COMPOSITION AND PHARMACEUTICAL USE THEREOF” (Xizang Haisco Pharmaceutical Co., Ltd., priority 2020, published 2024).

Counter-ions that a name gives are not always drawn.

This assay deals with 22RV1 cells. The experiment in a line: Experiment 2 on inhibiting 22RV1 cell proliferation (7 days, CellTiter-Glo). It counts as cell-based. As to conditions: Homo sapiens, 22Rv1, 168 h, 1% css-FBS phenol red-free medium, incubated with compound 7 days, read-out: IC50 values on proliferation inhibition of 22RV1 cells. In short, it runs like this:
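22RV1 cells plated at 2000/well in phenol red-free medium with 1% css-FBS and treated next day with compound for 7 days at 37 °C. Viability read by CellTiter-Glo luminescence relative to DMSO vehicle; IC50 from dose-response fit.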
On the technique in general: In ATP-based viability assays light output follows the ATP content of the culture.
As for `CC(C)(c1ccc(OCc2ccnc(N3CC(CN4CCC5(CC4)CCN(c4ccc6c(c4)C(=O)N(C4CCC(=O)NC4=O)C6=O)CC5)C3)n2)cc1)c1cc(Cl)cc(C#N)c1` (centres unmarked) [Compound 87 trifluoroacetate, 3-chloro-5-(2-(4-((2-(3-((9-(2-(2,6-dioxopiperidin-3-yl)-1,3-dioxoisoindolin-5-yl)-3,9-diazaspiro[5.5]undecan-3-yl)methyl)azetidin-1-yl)pyrimidin-4-yl)methoxy)phenyl)propan-2-yl)benzonitrile], the IC50 was found to be 303 nM.
Regarding `Cn1c(=O)n(C2CCC(=O)NC2=O)c2ccc(C3CCN(C4CCN(CC5(F)CCN(c6nccc(COc7ccc(C(C)(C)c8cc(Cl)cc(C#N)c8)cc7)n6)CC5)CC4)CC3)cc21` (centres unmarked) [Compound 90 trifluoroacetate, 3-chloro-5-(2-(4-((2-(4-((4-(1-(2,6-dioxopiperidin-3-yl)-3-methyl-2-oxo-2,3-dihydro-1H-benzo[d]imidazol-5-yl)-[1,4′-bipiperidin]-1′-yl)methyl)-4-fluoropiperidin-1-yl)pyrimidin-4-yl)methoxy)phenyl)propan-2-yl)benzonitrile], the IC50 was 627 nM.
Consider `Cn1c(=O)n(C2CCC(=O)NC2=O)c2ccc(C3CCN(CC4CCN(C5CCN(c6nccc(COc7ccc(C(C)(C)c8cc(Cl)cc(C#N)c8)cc7)n6)CC5)CC4)CC3)cc21` (centres unmarked) [Compound 91 trifluoroacetate, 3-chloro-5-(2-(4-((2-(4-((4-(1-(2,6-dioxopiperidin-3-yl)-3-methyl-2-oxo-2,3-dihydro-1H-benzo[d]imidazol-5-yl)piperidin-1-yl)methyl)-[1,4′-bipiperidin]-1′-yl)pyrimidin-4-yl)methoxy)phenyl)propan-2-yl)benzonitrile], for which the IC50 is 427 nM.
The same measure for `COc1c(Cl)cc(C(C)(C)c2ccc(OCc3ccnc(N4CCC(CN5CCC(c6ccc7c(c6)n(C)c(=O)n7C6CCC(=O)NC6=O)CC5)CC4)n3)cc2)cc1C#N` (centres unmarked) [Compound 92 trifluoroacetate, 3-chloro-5-(2-(4-((2-(4-((4-(1-(2,6-dioxopiperidin-3-yl)-3-methyl-2-oxo-2,3-dihydro-1H-benzo[d]imidazol-5-yl)piperidin-1-yl)methyl)piperidin-1-yl)pyrimidin-4-yl)methoxy)phenyl)propan-2-yl)-2-methoxybenzonitrile]: 900 nM; for `COc1c(Cl)cc(C(C)(C)c2ccc(OCc3ccnc(N4CCC5(CCC(CN6CCC(c7ccc8c(c7)n(C)c(=O)n8C7CCC(=O)NC7=O)CC6)CC5)CC4)n3)cc2)cc1C#N` (centres unmarked) [Compound 93 trifluoroacetate, 3-chloro-5-(2-(4-((2-(9-((4-(1-(2,6-dioxopiperidin-3-yl)-3-methyl-2-oxo-2,3-dihydro-1H-benzo[d]imidazol-5-yl)piperidin-1-yl)methyl)-3-azaspiro[5.5]undecan-3-yl)pyrimidin-4-yl)methoxy)phenyl)propan-2-yl)-2-methoxybenzonitrile]: 554 nM.
On to `Cn1c(=O)n(C2CCC(=O)NC2=O)c2cccc(CN3CCC(N4CCC5(CCN(c6nccc(COc7ccc(C(C)(C)c8cc(Cl)cc(C#N)c8)cc7)n6)CC5)CC4)CC3)c21` (centres unmarked) [Compound 100 trifluoroacetate, 3-chloro-5-(2-(4-((2-(9-(1-((1-(2,6-dioxopiperidin-3-yl)-3-methyl-2-oxo-2,3-dihydro-1H-benzo[d]imidazol-4-yl)methyl)piperidin-4-yl)-3,9-diazaspiro[5.5]undecan-3-yl)pyrimidin-4-yl)methoxy)phenyl)propan-2-yl)benzonitrile], for which the IC50 worked out at 577 nM.
On to `Cn1c(=O)n(C2CCC(=O)NC2=O)c2cccc(CN3CCC4(CC3)CC(N3CCC5(CCN(c6nccc(COc7ccc(C(C)(C)c8cc(Cl)cc(C#N)c8)cc7)n6)CC5)CC3)C4)c21` (centres unmarked) [Compound 101 trifluoroacetate, 3-chloro-5-(2-(4-((2-(9-(7-((1-(2,6-dioxopiperidin-3-yl)-3-methyl-2-oxo-2,3-dihydro-1H-benzo[d]imidazol-4-yl)methyl)-7-azaspiro[3.5]nonan-2-yl)-3,9-diazaspiro[5.5]undecan-3-yl)pyrimidin-4-yl)methoxy)phenyl)propan-2-yl)benzonitrile], for which the IC50 stood at 699 nM.
In the case of `CCOc1c(Cl)cc(C(C)(C)c2ccc(OCc3ccnc(N4CCC(CN(C)C5CCN(c6ccc7c(c6)n(C)c(=O)n7C6CCC(=O)NC6=O)CC5)CC4)n3)cc2)cc1C#N` (centres unmarked) [Compound 102 trifluoroacetate, 3-chloro-5-(2-(4-((2-(4-(((1-(1-(2,6-dioxopiperidin-3-yl)-3-methyl-2-oxo-2,3-dihydro-1H-benzo[d]imidazol-5-yl)piperidin-4-yl)(methyl)amino)methyl)piperidin-1-yl)pyrimidin-4-yl)methoxy)phenyl)propan-2-yl)-2-ethoxybenzonitrile], the IC50 is 641 nM.
On to `Cn1c(=O)n(C2CCC(=O)NC2=O)c2ccc(N3CCC(C4CCN(CC5CN(c6nccc(COc7ccc(C(C)(C)c8cc(Cl)cc(C#N)c8)cc7)n6)C5)CC4)CC3)cc21` (centres unmarked) [Compound 103 trifluoroacetate, 3-chloro-5-(2-(4-((2-(3-((1′-(1-(2,6-dioxopiperidin-3-yl)-3-methyl-2-oxo-2,3-dihydro-1H-benzo[d]imidazol-5-yl)-[4,4′-bipiperidin]-1-yl)methyl)azetidin-1-yl)pyrimidin-4-yl)methoxy)phenyl)propan-2-yl)benzonitrile], for which the IC50 was found to be 823 nM.
The figure for `Cn1c(=O)n(C2CCC(=O)NC2=O)c2ccc(N3CCC(C4CCN(C5CCN(c6nccc(COc7ccc(C(C)(C)c8cc(Cl)cc(C#N)c8)cc7)n6)CC5)CC4)CC3)cc21` (centres unmarked) [Compound 104 trifluoroacetate, 3-chloro-5-(2-(4-((2-(1″-(1-(2,6-dioxopiperidin-3-yl)-3-methyl-2-oxo-2,3-dihydro-1H-benzo[d]imidazol-5-yl)-[4,1′:4′,4″-terpiperidin]-1-yl)pyrimidin-4-yl)methoxy)phenyl)propan-2-yl)benzonitrile] is 664 nM.
Take `Cn1c(=O)n(C2CCC(=O)NC2=O)c2ccc(C3CCN(CC4CCN(c5nccc(COc6ccc(C(C)(C)c7cc(Cl)cc(C#N)c7)cc6)n5)CC4)CC3)cc21` (centres unmarked) [Compound 105 trifluoroacetate, 3-chloro-5-(2-(4-((2-(4-((4-(1-(2,6-dioxopiperidin-3-yl)-3-methyl-2-oxo-2,3-dihydro-1H-benzo[d]imidazol-5-yl)piperidin-1-yl)methyl)piperidin-1-yl)pyrimidin-4-yl)methoxy)phenyl)propan-2-yl)benzonitrile]: the IC50 came to 575 nM.
The same measure for `Cn1c(=O)n(C2CCC(=O)NC2=O)c2ccc(C3CCN(C4CC5(CCN(c6nccc(COc7ccc(C(C)(C)c8cc(Cl)cc(C#N)c8)cc7)n6)CC5)C4)CC3)cc21` (centres unmarked) [Compound 106 trifluoroacetate, 3-chloro-5-(2-(4-((2-(2-(4-(1-(2,6-dioxopiperidin-3-yl)-3-methyl-2-oxo-2,3-dihydro-1H-benzo[d]imidazol-5-yl)piperidin-1-yl)-7-azaspiro[3.5]nonan-7-yl)pyrimidin-4-yl)methoxy)phenyl)propan-2-yl)benzonitrile]: 550 nM; for `CCOc1c(Cl)cc(C(C)(C)c2ccc(OCc3ccnc(N4CCC5(CC4)CC(N4CCC(c6ccc7c(c6)n(C)c(=O)n7C6CCC(=O)NC6=O)CC4)C5)n3)cc2)cc1C#N` (centres unmarked) [Compound 107 trifluoroacetate, 3-chloro-5-(2-(4-((2-(2-(4-(1-(2,6-dioxopiperidin-3-yl)-3-methyl-2-oxo-2,3-dihydro-1H-benzo[d]imidazol-5-yl)piperidin-1-yl)-7-azaspiro[3.5]nonan-7-yl)pyrimidin-4-yl)methoxy)phenyl)propan-2-yl)-2-ethoxybenzonitrile]: 526 nM; for `Cn1c(=O)n(C2CCC(=O)NC2=O)c2ccc(C3CCN(CC4CCN(C5CC6(CCN(c7nccc(COc8ccc(C(C)(C)c9cc(Cl)cc(C#N)c9)cc8)n7)CC6)C5)CC4)CC3)cc21` (centres unmarked) [Compound 108 trifluoroacetate, 3-chloro-5-(2-(4-((2-(2-(4-((4-(1-(2,6-dioxopiperidin-3-yl)-3-methyl-2-oxo-2,3-dihydro-1H-benzo[d]imidazol-5-yl)piperidin-1-yl)methyl)piperidin-1-yl)-7-azaspiro[3.5]nonan-7-yl)pyrimidin-4-yl)methoxy)phenyl)propan-2-yl)benzonitrile]: 251 nM.
The figure for `CCOc1c(Cl)cc(C(C)(C)c2ccc(OCc3ccnc(N4CCC5(CC4)CC(N4CCC(CN6CCC(c7ccc8c(c7)n(C)c(=O)n8C7CCC(=O)NC7=O)CC6)CC4)C5)n3)cc2)cc1C#N` (centres unmarked) [Compound 109 trifluoroacetate, 3-chloro-5-(2-(4-((2-(2-(4-((4-(1-(2,6-dioxopiperidin-3-yl)-3-methyl-2-oxo-2,3-dihydro-1H-benzo[d]imidazol-5-yl)piperidin-1-yl)methyl)piperidin-1-yl)-7-azaspiro[3.5]nonan-7-yl)pyrimidin-4-yl)methoxy)phenyl)propan-2-yl)-2-ethoxybenzonitrile] is 330 nM; for `COc1c(Cl)cc(C(C)(C)c2ccc(OCc3ccnc(N4CCC5(CC4)CC(CN4CCC(c6ccc7c(c6)n(C)c(=O)n7C6CCC(=O)NC6=O)CC4)C5)n3)cc2)cc1C#N` (centres unmarked) [Compound 113 trifluoroacetate, 3-chloro-5-(2-(4-((2-(2-((4-(1-(2,6-dioxopiperidin-3-yl)-3-methyl-2-oxo-2,3-dihydro-1H-benzo[d]imidazol-5-yl)piperidin-1-yl)methyl)-7-azaspiro[3.5]nonan-7-yl)pyrimidin-4-yl)methoxy)phenyl)propan-2-yl)-2-methoxybenzonitrile] it is 419 nM; for `CN(CC1CCN(c2nccc(COc3ccc(C(C)(C)c4cc(Cl)cc(C#N)c4)cc3)n2)CC1)C1CCN(c2ccc3c(c2)n(C)c(=O)n3C2CCC(=O)NC2=O)CC1` (centres unmarked) [Compound 114 trifluoroacetate, 3-chloro-5-(2-(4-((2-(4-(((1-(1-(2,6-dioxopiperidin-3-yl)-3-methyl-2-oxo-2,3-dihydro-1H-benzo[d]imidazol-5-yl)piperidin-4-yl)(methyl)amino)methyl)piperidin-1-yl)pyrimidin-4-yl)methoxy)phenyl)propan-2-yl)benzonitrile] it is 665 nM.
